In patent US20260116910A1, “POLYCYCLIC COMPOUNDS AND METHODS THEREOF” (HEPAITECH (BEIJING) BIOPHARMA TECHNOLOGY CO., LTD., priority 2021, published 2026):

Key:
human FXR (NR1H4) = biological target: T1, human FXR (NR1H4) (Homo sapiens, UniProt Q96RI1); assay: Human FXR (NR1H4) agonist assessment, FXRE-NanoLuc reporter in HEK293T cells; type: cell-based; conditions: FXR activation, HEK293T FXRE-NanoLuc reporter, 24 hr; for EC50: read-out: EC50
T1 sequence (Q96RI1 1-476 isoform Q96RI1-1): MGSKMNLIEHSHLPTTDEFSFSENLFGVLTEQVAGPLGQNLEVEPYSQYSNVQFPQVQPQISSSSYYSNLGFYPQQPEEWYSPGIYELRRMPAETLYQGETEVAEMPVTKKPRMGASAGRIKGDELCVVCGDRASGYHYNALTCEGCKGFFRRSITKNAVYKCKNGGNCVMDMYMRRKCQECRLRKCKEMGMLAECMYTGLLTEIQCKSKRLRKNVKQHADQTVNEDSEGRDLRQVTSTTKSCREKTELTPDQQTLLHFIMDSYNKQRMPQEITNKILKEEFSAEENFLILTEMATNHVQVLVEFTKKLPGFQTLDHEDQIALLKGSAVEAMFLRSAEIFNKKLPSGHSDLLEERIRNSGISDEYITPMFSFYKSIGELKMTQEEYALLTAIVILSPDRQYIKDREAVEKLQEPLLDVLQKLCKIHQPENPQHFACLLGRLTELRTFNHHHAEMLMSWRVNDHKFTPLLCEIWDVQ
Method in brief: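 Read-out was NanoLuc luminescence in culture medium, measured 5 min after adding coelenterazine. Cells were HEK293T stably carrying human FXR and an FXRE reporter, exposed to compound for 24 hr at 37 °C. Vehicle was 0.01% DMSO. EC50 was obtained from sigmoid fits of gradient dilutions.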

MRGPRX4 = MRGPRX4 (Homo sapiens, UniProt Q96LA9); assay: MRGPRX4 activation, Fluo-8 Ca2+ FLIPR assay in HEK293T cells stably expressing MRGPRX4; type: cell-based; parameters: key to MRGPRX4 activation, Average / MRGPRX4 activation, Ave.: fluorescence change dF/F0; conditions: for EC50: MRGPRX4 activation, Ca2+ fluorescence, no activation in tested range reported as III, read-out: Activity (EC50 μM)
Chain of MRGPRX4 (Q96LA9 whole entry): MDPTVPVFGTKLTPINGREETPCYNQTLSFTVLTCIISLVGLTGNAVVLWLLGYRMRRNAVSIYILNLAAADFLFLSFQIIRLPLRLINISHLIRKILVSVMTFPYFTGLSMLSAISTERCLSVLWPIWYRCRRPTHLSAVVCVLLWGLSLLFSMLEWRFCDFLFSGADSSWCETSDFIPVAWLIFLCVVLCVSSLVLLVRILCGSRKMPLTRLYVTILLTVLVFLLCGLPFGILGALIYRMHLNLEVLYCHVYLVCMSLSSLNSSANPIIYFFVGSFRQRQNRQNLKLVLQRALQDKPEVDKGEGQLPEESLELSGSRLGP
Method in brief: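 Response measured as dF/F0: 30 s baseline, then 150 s after compound addition on FLIPR Tetra, in HHBS after 40-60 min room-temperature loading with 2 μM Fluo-8 AM.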

[1] = E3-6-2, 1st of 6 concentration columns (head not in rows shown)
[2] = E3-6-2, 3rd of 6 concentration columns (head not in rows shown)
[3] = E3-6-2, 6th of 6 concentration columns (head not in rows shown)
[4] = E3-6-2, concentration not given

SMILES	Efficacy (maximum measured induction of NanoLuc, normalized to CDCA set as 100%) (human FXR (NR1H4))	EC50 (human FXR (NR1H4))	MRGPRX4 activation, fluorescence change (dF/F0), Average (MRGPRX4; Conc. (Log[M]) −4)	MRGPRX4 activation, fluorescence change (dF/F0), Average (MRGPRX4; Conc. (Log[M]) −4.5)	MRGPRX4 activation, fluorescence change (dF/F0), Average (MRGPRX4; Conc. (Log[M]) −5)	MRGPRX4 activation, fluorescence change (dF/F0), Average (MRGPRX4; Conc. (Log[M]) −5.5)	MRGPRX4 activation, fluorescence change (dF/F0), Average (MRGPRX4; Conc. (Log[M]) −6)	MRGPRX4 activation, fluorescence change (dF/F0), Average (MRGPRX4; Conc. (Log[M]) −7)	EC50 (MRGPRX4)	further results
CC[C@H]1[C@@H](O)[C@@H]2[C@H](CC[C@]3(C)[C@@H]([C@H](C)CCNC(=O)NS(=O)(=O)C4CCCCC4)CC[C@@H]23)[C@@]2(C)CCCC[C@@H]12 [5-3]	C (100%<efficacy <=300%)	1 to 10 µM	0.297	0.031	0.001	−0.012	−0.033	−0.011	> 100 µM	MRGPRX4 activation, fluorescence change (dF/F0), Average (MRGPRX4; Conc. (Log[M]) −8): −0.012; MRGPRX4 activation, fluorescence change (dF/F0), Average (MRGPRX4; Conc. (Log[M]) −9): 0.002
CC[C@H]1[C@@H](O)[C@@H]2[C@H](CC[C@]3(C)[C@@H]([C@H](C)CCNC(=O)NS(=O)(=O)c4ccc5c(c4)CCN5C(C)=O)CC[C@@H]23)[C@@]2(C)CCCC[C@@H]12 [5-4]	B (300%<efficacy <=400%)	< 1 µM	0.097	0.017	0.020	0.020	0.013	0.017	> 100 µM	–
CC[C@H]1[C@@H](O)[C@@H]2[C@H](CC[C@]3(C)[C@@H]([C@H](C)CCNC(=O)NS(=O)(=O)C4CCC(C)(C)CC4)CC[C@@H]23)[C@@]2(C)CCCC[C@@H]12 [5-5]	C (100%<efficacy <=300%)	< 1 µM	0.083	0.033	0.017	0.020	0.027	0.060	> 100 µM	–
CC[C@H]1[C@@H](O)[C@@H]2[C@H](CC[C@]3(C)[C@@H]([C@H](C)CCNC(=O)NS(=O)(=O)c4ccc5c(c4)OCO5)CC[C@@H]23)[C@@]2(C)CCCC[C@@H]12 [5-6]	C (100%<efficacy <=300%)	< 1 µM	0.077	0.033	0.010	0.017	0.013	0.010	> 100 µM	–
CC[C@H]1[C@@H](O)[C@@H]2[C@H](CC[C@]3(C)[C@@H]([C@H](C)CCNC(=O)NS(=O)(=O)c4cccc(Cl)c4)CC[C@@H]23)[C@@]2(C)CCCC[C@@H]12 [5-7]	B (300%<efficacy <=400%)	< 1 µM	0.070	0.027	0.030	0.020	0.020	0.017	> 100 µM	–
CC[C@H]1[C@@H](O)[C@@H]2[C@H](CC[C@]3(C)[C@@H]([C@H](C)CCNC(=O)NS(=O)(=O)c4ccc(C)cc4)CC[C@@H]23)[C@@]2(C)CCCC[C@@H]12 [5-8]	C (100%<efficacy <=300%)	< 1 µM	0.073	0.037	0.023	0.017	0.020	0.023	> 100 µM	–
CC[C@H]1[C@@H](O)[C@@H]2[C@H](CC[C@]3(C)[C@@H]([C@H](C)CCNC(=O)NS(=O)(=O)c4ccc(C(C)(C)C(=O)O)cc4)CC[C@@H]23)[C@@]2(C)CCCC[C@@H]12 [5-10]	C (100%<efficacy <=300%)	< 1 µM	0.090	0.043	0.013	0.017	0.020	0.030	> 100 µM	–
CC[C@H]1[C@@H](O)[C@@H]2[C@H](CC[C@]3(C)[C@@H]([C@H](C)CCNC(=O)NS(=O)(=O)N4CCCC4)CC[C@@H]23)[C@@]2(C)CCCC[C@@H]12 [5-11]	C (100%<efficacy <=300%)	1 to 10 µM	0.057	0.030	0.033	0.013	0.023	0.067	> 100 µM	–
CC[C@H]1[C@@H](O)[C@@H]2[C@H](CC[C@]3(C)[C@@H]([C@H](C)CCNC(=O)NS(=O)(=O)N4CC5CC5C4)CC[C@@H]23)[C@@]2(C)CCCC[C@@H]12 (stereo partly shown) [5-12]	C (100%<efficacy <=300%)	1 to 10 µM	–	–	–	–	–	–	> 100 µM	MRGPRX4 activation, Average (MRGPRX4; [1]): 0.057; MRGPRX4 activation, Average (MRGPRX4; [2]): 0.023; MRGPRX4 activation, Average (MRGPRX4; [3]): 0.013; MRGPRX4 activation, Average (MRGPRX4; [4]): 0.013
CC[C@H]1[C@@H](O)[C@@H]2[C@H](CC[C@]3(C)[C@@H]([C@H](C)CCNC(=O)NS(=O)(=O)Cc4ccccc4)CC[C@@H]23)[C@@]2(C)CCCC[C@@H]12 [5-13]	C (100%<efficacy <=300%)	< 1 µM	–	–	–	–	–	–	> 100 µM	MRGPRX4 activation, Average (MRGPRX4; [1]): 0.060; MRGPRX4 activation, Average (MRGPRX4; [2]): 0.030; MRGPRX4 activation, Average (MRGPRX4; [3]): 0.027; MRGPRX4 activation, Average (MRGPRX4; [4]): 0.017
CCCCS(=O)(=O)NC(=O)NCC[C@@H](C)[C@H]1CC[C@H]2[C@@H]3[C@H](O)[C@H](CC)[C@@H]4CCCC[C@]4(C)[C@H]3CC[C@]12C [5-14]	C (100%<efficacy <=300%)	< 1 µM	–	–	–	–	–	–	> 100 µM	MRGPRX4 activation, Average (MRGPRX4; [1]): 0.070; MRGPRX4 activation, Average (MRGPRX4; [2]): 0.017; MRGPRX4 activation, Average (MRGPRX4; [3]): 0.017; MRGPRX4 activation, Average (MRGPRX4; [4]): 0.017
CC[C@H]1[C@@H](O)[C@@H]2[C@H](CC[C@]3(C)[C@@H]([C@H](C)CCNC(=O)NS(=O)(=O)c4ccc(C(C)(C)C(N)=O)cc4)CC[C@@H]23)[C@@]2(C)CCCC[C@@H]12 [5-16]	C (100%<efficacy <=300%)	< 1 µM	–	0.020	–	–	–	–	> 100 µM	MRGPRX4 activation, fluorescence change (dF/F0), Average (MRGPRX4; Conc. (Log[M]) −4.0): 0.030; MRGPRX4 activation, fluorescence change (dF/F0), Average (MRGPRX4; Conc. (Log[M]) −5.0): 0.010; MRGPRX4 activation, fluorescence change (dF/F0), Average (MRGPRX4; Conc. (Log[M]) −5.4): 0.020; MRGPRX4 activation, fluorescence change (dF/F0), Average (MRGPRX4; Conc. (Log[M]) −5.9): 0.020; MRGPRX4 activation, fluorescence change (dF/F0), Average (MRGPRX4; Conc. (Log[M]) −6.4): 0.013; MRGPRX4 activation, fluorescence change (dF/F0), Average (MRGPRX4; Conc. (Log[M]) −6.9): 0.013; MRGPRX4 activation, fluorescence change (dF/F0), Average (MRGPRX4; Conc. (Log[M]) −7.3): 0.013; MRGPRX4 activation, fluorescence change (dF/F0), Average (MRGPRX4; Conc. (Log[M]) −7.8): 0.013; MRGPRX4 activation, fluorescence change (dF/F0), Average (MRGPRX4; Conc. (Log[M]) −8.3): 0.025
CC[C@H]1[C@@H](O)[C@@H]2[C@H](CC[C@]3(C)[C@@H]([C@H](C)CCNC(=O)NS(=O)(=O)c4ccc(C(C)(C)C#N)cc4)CC[C@@H]23)[C@@]2(C)CCCC[C@@H]12 [5-17]	C (100%<efficacy <=300%)	< 1 µM	–	0.018	–	–	–	–	> 100 µM	MRGPRX4 activation, fluorescence change (dF/F0), Average (MRGPRX4; Conc. (Log[M]) −4.0): 0.016; MRGPRX4 activation, fluorescence change (dF/F0), Average (MRGPRX4; Conc. (Log[M]) −5.0): 0.019; MRGPRX4 activation, fluorescence change (dF/F0), Average (MRGPRX4; Conc. (Log[M]) −5.4): 0.016; MRGPRX4 activation, fluorescence change (dF/F0), Average (MRGPRX4; Conc. (Log[M]) −5.9): 0.018; MRGPRX4 activation, fluorescence change (dF/F0), Average (MRGPRX4; Conc. (Log[M]) −6.4): 0.018; MRGPRX4 activation, fluorescence change (dF/F0), Average (MRGPRX4; Conc. (Log[M]) −6.9): 0.011; MRGPRX4 activation, fluorescence change (dF/F0), Average (MRGPRX4; Conc. (Log[M]) −7.3): 0.018; MRGPRX4 activation, fluorescence change (dF/F0), Average (MRGPRX4; Conc. (Log[M]) −7.8): 0.020; MRGPRX4 activation, fluorescence change (dF/F0), Average (MRGPRX4; Conc. (Log[M]) −8.3): 0.013
